Assay results from patent US4918064A, “Phenyl glycines for use in reducing neurotoxic injury” (G. D. Searle & Co., priority 1987, dated 1990).
Like-named read-outs stand apart in the source and are kept apart here.

What was measured:
KA (kainate) receptor = assay: [3H]kainate receptor binding assay, synaptic plasma membranes; conditions: [3H]kainate 0.5 nM, 0-4° C., 60 min
Method: Synaptic plasma membranes (SPM) were prepared as previously described [Monahan, J. B. and Michel, J., "Identification and Characterization of an N-methyl-D-aspartate-specific L[^3 H]glutamate Recognition Site in Synaptic Plasma Membranes, J. Neurochem., 48, 1699-1708 (1987)]. The SPM were stored at a concentration of 10-15 mg/ml in 0.32M sucrose, 0.5 mM EDTA, 1 mM MgSO4, 5 mM Tris/SO4, pH 7.4, under liquid nitrogen. The identity and purity of the subcellular fractions were confirmed by both electron microscopy and marker enzymes. Protein concentrations were determined by using a modification of the method of Lowry [Ohnishi, S. T. and Barr, J. K., "A Simplified Method of Quantitating Proteins Using the Biuret and Phenol Reagents", Anal. Biochem., 86, 193-197 (1978)].
The SPM were treated identically for the [^3 H]AMPA (QUIS), [^3 H]kainate and sodium-dependent L-[^3 H]-glumatate binding assays. The SPM were thawed at room temperature, diluted twenty-fold with 50 mM Tris/acetate, pH 7.4, incubated at 37° C. for 30 minutes, and centrifuged at 100,000 g for 15 minutes. The dilution, incubation, and centrifugation was repeated a total of three times.
The basic procedure for the receptor subclass binding assays was similar. This general method involved adding the radioligand (12.5 nM L-[^3 H]glutamate; 0.5 nM [^3 H]kainate or 10 nM [^3 H]AMPA) to the appropriate concentration of the test compound and initiating the assay by the addition of ice cold synaptic plasma membranes (0.2-0.45 mg). The binding assays were performed in 1.5 mL centrifuge tubes with the total volume adjusted to 1.0 mL. .Additions of test compounds were made in 50 mM Tris/acetate, pH 7.4 and incubations were carried out at 0°-4° C. The incubation time for the NMDA and the AMPA binding assays was 10 minutes, for the kainate binding assay 60 minutes and for the sodium-dependent glutamate binding assay 15 minutes. The AMPA binding assay contained 100 mM KSCN and the sodium-dependent glutamate binding assay contained 150 mM sodium acetate in addition to the previously described reagents.
To terminate the incubation, the samples were centrifuged for 15 minutes at 12,000 g and 4° C. in a Beckman Microfuge 12. The supernatant was aspirated and the pelleted membranes dissolved in Beckman BTS-450 tissue solubilizer for a minimum of 6 hours at room temperature. Beckman MP scintillation cocktail containing 7 mL/1 acetic acid was then added and the samples counted on a Beckman LS 5800 or 3801 liquid scintillation counter with automatic corrections for quenching and counting efficiency.
Nonspecific binding was defined as the residual binding in the presence of either excess L-glutamate (0.1-0.4 mM), kainate (0.01 mM), or NMDA (0.5 mM), and was 15-25% of the total binding in the NMDA binding assay, 19-27% in the AMPA binding assay, 20-30% in the kainate binding assay and 10-15% in the sodium-dependent binding assay. Radioligand binding to the synaptic plasma membranes was analyzed using Scatchard and Hill transformations and the Ki values of the compounds determined using logit-log transformations. Calculations and regression analysis were performed using templates developed for Lotus 1, 2, 3 as previously described [Pullan, L. M. "Automated Radioligand Receptor Binding Analysis with Templates for Lotus", Computer Appln. Biosci., 3 131 (1987)]. Binding results are reported in Table II for example compounds of the invention. […]

CD-1 mouse = assay: In Vivo 3-MPA-Induced Convulsions (tonic hindlimb extension); conditions: Mus musculus
Method: In the CD-1 mouse, i.p. injection of 3-MPA produces clonic seizures, tonic hindlimb extension and death. Seizures begin within 2-3 minutes after injection. The dose-response for induction of tonus by 3-MPA is unusual. The incidence of tonus increases rapidly from 35 to 50 mg/kg and remains constant at a less than maximal level over a broad dose range. 3-MPA doses from 50 to 150 mg/kg produce tonus in approximately 75% of the treated mice. The incidence of death over this dose range is variable and less than maximal.
In order to test for antagonism of 3-MPA-induced tonus, the lowest dose of 3-MPA that produced tonus consistently in 75% of the animals (50 mg/kg i.p.) was chosen. Test compounds were administered subcutaneously 30-40 minutes prior to i.p. administration of 3-MPA. Immediately after 3-MPA administration, each mouse was placed in a small cage made of steel rods. The mice were then observed for the presence or absence of tonic hindlimb extension. Reduction (from 75%) in the incidence of tonic hindlimb extension was considered protection from 3-MPA-induced convulsions. The dose of the test compound varied using groups of ten mice per dose until dose response curves are constructed, and ED50 's are calculated.

SMILES: NC(C(=O)O)c1ccc(CP(=O)(O)O)cc1 (stereo not drawn) [Example VI, 4-(Phosphonomethyl)phenylglycine]
- Receptor binding, KA (Ki) (KA (kainate) receptor): > 300 µM
- ED50 (CD-1 mouse; po, i.g., 3-MPA 50 mg/kg i.p., read-out: 3-MPA Convulsions i.g. (ED50)): 300 mg/kg
- ED50 (CD-1 mouse; sc, s.c. 30-40 minutes prior to 3-MPA 50 mg/kg i.p., read-out: 3-MPA Convulsions s.c. (ED50)): 6 mg/kg
